Measurements published in patent US20240140895A1, “NOVEL AROMATIC MOLECULES” (XENIOPRO GmbH, priority 2018, published 2024).

Tested on: Notch signaling (human Notch1 receptor, hNotch1ΔE)
Assay: Notch reporter assay (dual luciferase, HeLa cells transfected with hNotch1ΔE)
Assay type: cell-based
Conditions: 10 μM
Description: The activation level of Notch signaling can be quantified in vitro reliably by measuring the expression levels of Notch specific target genes. This can be accomplished by the quantification of corresponding mRNA or protein of a particular Notch target gene. Alternatively, cells can be genetically modified to carry a luciferase gene as an artificial Notch target gene, which is expressed in dependence of Notch activity. In this setting, Notch signaling levels can be quantified by measuring the luciferase-derived bioluminescence values.
An according Notch-reporter assay, i.e. a luciferase-based luminescence readout, was used here to quantify the ability of the claimed compounds to augment Notch signaling in a cellular system. […] After 24 hours of transfection, the transfected cells were carefully detached from the dish using 0.5 mM EDTA in PBS and seeded into 96-well plates suitable for luminescence readouts (CORNING, #3610) at 10,000 cells per well. […] Directly after the lysis, first the Firefly and then the Renilla luciferase values were measured consecutively from the same well with a luminescence reader immediately after applying 15 μL per well each of the corresponding enzyme substrates needed to create the luminescence signals (Promega, Dual-Luciferase® Reporter Assay System, #E1910). […]

## Oc1ccc(C=Cc2cc(O)cc(O)c2)cc1 [RES, resveratrol, reference compound]
  Activity Range: weighted arithmetic mean (AVEw) of double-normalized Notch-reporter luminescence, relative to DMSO basis level 1.0: 1.9 ± 0.5
